EP4582426A1, “PAN-KRAS INHIBITOR COMPOUND” (Adlai Nortye Biopharma Co., Ltd., priority 2022, dated 2024)

What was measured:
[1] = system: SW480 (G12V); experiment: In vitro cell proliferation inhibition test (CellTiter-Glo Luminescent Cell Viability Assay); type: cell-based; conditions: SW480 cell line, Large intestine, Colon, KRAS (p.G12V), cells and compounds co-incubated 72 hours
From the text: (§1) Due to the diversity of RAS mutations and in order to evaluate the activity of compounds in different RAS mutant cell lines, we selected KRAS^WT, KRAS^G12C, KRAS^G12D), KRAS^G12V and BRAF mutant cell lines (see the table below) for in vitro activity evaluation and screening of compounds .
(§2) Experimental protocol: CellTiter-Glo® Cell Luminescent Viability Assay (Promega)
(§3) According to the doubling time of different cell lines, different numbers of cells (1000-5000 cells/well) were inoculated into 96-well plates containing 180 µl of the corresponding medium, and cultured overnight in a 37°C cell incubator containing 5% CO2. On the second day, the compound to be tested was pre-diluted 3-fold with the medium, the highest concentration was 100 µM, and there were 10 concentration gradients in total; then 20 µl of the medium containing different concentrations of the compound was added to the cells in the 96-well plate to ensure the final concentration of the compound to be up to 10 µM, with 10 concentration gradients of 3-fold dilutions. After co-incubating cells and compounds for 72 hours, the 96-well plate was taken out of the incubator, placed at room temperature for 30 minutes, and then 25 µl CellTiter-Glo® Reagent was added to each well to mix well, and incubated at room temperature for 10 minutes, and then 100 µl of the sample was transferred to a white 96-well plate (OptiPlateTM-96, PerkinElmer), the […] signal value was read using a multi-functional microplate reader (SpectraMax® i3x, Molecular devices). Subsequently, the signal value was standardized, and the four-parameter fitting regression equation was used for curve fitting to calculate the half maximal inhibitory concentration (IC50) of the compound on the cell line. Table 3: Antiproliferative activity of compounds of the present invention on KRAS cell mutants

[2] = system: AsPC-1 (G12D); experiment: as above; type: cell-based; conditions: AsPC-1 cell line, Pancreas, KRAS (p.G12D), cells and compounds co-incubated 72 hours
From the text: as §1, §2, §3

Molecule | IC50 [1] [nM] | IC50 [2] [nM] | also measured
CCn1c(-c2cc(C#CCN3C[C@@H](C)O[C@@H](C)C3)cnc2[C@H](C)OC)c2c3cc(ccc31)-c1csc(n1)C[C@H](NC(=O)[C@H]1C[C@@H]1C)C(=O)N1CCC[C@H](N1)C(=O)OCC(C)(C)C2 (single isomer, unassigned) [Example 9] | 31.6 | 4.5 | IC50 ([1]; listed as 9'): 963 nM; IC50 ([2]; listed as 9'): 1360 nM
CCn1c(-c2cc(C#CCN3CCC(F)C3)cnc2C(C)OC)c2c3cc(ccc31)-c1csc(n1)CC(NC(=O)C1C(C)C1C)C(=O)N1CCCC(N1)C(=O)OCC(C)(C)C2 (single isomer, unassigned) [Example 21] | 1.1 | 0.82 | 
(1S,2S)-N-((6^3S,4S,Z)-1^2-(5-(3-(1,1-dioxidothiomorpholino)prop-1-yn-1-yl)-2-((S)-1-methoxyethyl)pyridin-3-yl)-1^1-ethyl-10,10-dimethyl-5,7-dioxo-6^1,6^2,6^3,6^4,6^5,6^6-hexahydro-1^1H-8-oxa-2(4,2)-thiazola-1(5,3)-indola-6(1,3)-pyridazinacycloundecaphane-4-yl)-2-methylcyclopropane-1-carboxamide [Example 43] | 0.68 | 0.42 | 
(1S,2S)-N-((6^3S,4S,Z)-1^1-ethyl-1^2-(2-((S)-1-methoxyethyl)-5-((6-methyl-5,6,7,8-tetrahydropyrido[4,3-d]pyrimidin-2-yl)ethynyl)pyridin-3-yl)-10,10-dimethyl-5,7-dioxo-6^1,6^2,6^3,6^4,6^5,6^6-hexahydro-1^1H-8-oxa-2(4,2)-thiazola-1(5,3)-indola-6(1,3)-pyridazinacycloundecaphane-4-yl)-2-methylcyclopropane-1-carboxamide [Example 44] | 6.3 | 16.8 | 
CCNc1ccc(C#Cc2cnc(C(C)OC)c(-c3c4c5cc(ccc5n3CC)-c3csc(n3)CC(NC(=O)C3C(C)C3C)C(=O)N3CCCC(N3)C(=O)OCC(C)(C)C4)c2)nn1 [32+32, (1r,2R,3S)-N-((6^3S,4S,Z)-1^1-ethyl-1^2-(5-((6-(ethylamino)pyridazin-3-yl)ethynyl)-2-((S)-1-methoxyethyl)pyridin-3-yl)-10,10-dimethyl-5,7-dioxo-6^1,6^2,6^3,6^4,6^5,6^6-hexahydro-1^1H-8-oxa-2(4,2)-thiazola-1(5,3)-indola-6(1,3)-pyridazinacycloundecaphane-4-yl)-2,3-dimethylcyclopropane-1-carboxamide] | 55.4 | 15.3 | 
CCn1c(-c2cc(C#CCN3CCOC[C@H]3C)cnc2[C@H](C)OC)c2c3cc(ccc31)-c1csc(n1)C[C@H](NC(=O)[C@H]1C[C@@H]1C)C(=O)N1CCC[C@H](N1)C(=O)OCC(C)(C)C2 [Example 15, (1S,2S)-N-((63S,4S,Z)-11-ethyl-12-(2-((S)-1-methoxyethyl)-5-(3-((R)-3-methylmorpholino)prop-1-yn-1-yl)pyridin-3-yl)-10,10-dimethyl-5,7-dioxo-61,62,63,64,65,66-hexahydro-11H-8-oxa-2 (4,2)-thiazola-1(5,3)-indola-6(1,3)-pyridazinacyclonecaphane-4-yl)-2-methylcyclopropane-1-carboxamide] | 2.2 | 1.7 | IC50 ([1]; listed as 15'): 1060 nM; IC50 ([2]; listed as 15'): 1880 nM
CCn1c(-c2cc(C#CCN3CCOCC3CO)cnc2C(C)OC)c2c3cc(ccc31)-c1csc(n1)CC(NC(=O)C1C(C)C1C)C(=O)N1CCCC(N1)C(=O)OCC(C)(C)C2 (single isomer, unassigned) [Example 25] | 0.51 | 0.35 | 
CCn1c(-c2cc(C#CCN3CCOCC3)cnc2[C@H](C)OC)c2c3cc(ccc31)-c1csc(n1)C[C@H](NC(=O)C1(C(F)(F)F)CC1)C(=O)N1CCC[C@H](N1)C(=O)OCC(C)(C)C2 (single isomer, unassigned) [Example 26] | 34.6 | 20.8 | 
CCn1c(-c2cc(C#Cc3cccc4c3ccn4C)cnc2[C@H](C)OC)c2c3cc(ccc31)-c1csc(n1)C[C@H](NC(=O)[C@H]1C[C@@H]1C)C(=O)N1CCC[C@H](N1)C(=O)OCC(C)(C)C2 [Example 56, (1S,2S)-N-((6^3S,4S,Z)-1^1-ethyl-1^2-(2-((S)-1-methoxyethyl)-5-((1-methyl-1H-indol-4-yl)ethynyl)pyridin-3-yl)-10,10-dimethyl-5,7-dioxo-6^1,6^2,6^3,6^4,6^5,6^6-hexahydro-1^1H-8-oxa-2(4,2)-thiazola-1(5,3)-indola-6(1,3)-pyridazinacycloundecaphane-4-yl)-2-methylcyclopropane-1-carboxamide] | 487 | 291 | 
CCn1c(-c2cc(C#CCN3CCOCC3)cnc2[C@H](C)OC)c2c3cc(ccc31)-c1csc(n1)C[C@H](NC(=O)[C@H]1C[C@@H]1C)C(=O)N1CCC[C@H](N1)C(=O)OCC(C)(C)C2 (single isomer, unassigned) [Example 1] | 1.02 | 0.92 | IC50 ([1]; listed as 1'): 343 nM; IC50 ([2]; listed as 1'): 582 nM
CCn1c(-c2cc(C#C[C@@H]3COCCN3C)cnc2[C@H](C)OC)c2c3cc(ccc31)-c1csc(n1)C[C@H](NC(=O)[C@H]1C[C@@H]1C)C(=O)N1CCC[C@H](N1)C(=O)OCC(C)(C)C2 [Example 28, (1S,2S)-N-((6^3S,4S,Z)-1^1-ethyl-1^2-(2-((S)-1-methoxyethyl)-5-(((R)-4-methylmorpholin-3-yl)ethynyl)pyridin-3-yl)-10,10-dimethyl-5,7-dioxo-6^1,6^2,6^3,6^4,6^5,6^6-hexahydro-1^1H-8-oxa-2(4,2)-thiazola-1(5,3)-indola-6(1,3)-pyridazinacycloundecaphane-4-yl)-2-methylcyclopropane-1-carboxamide] | 2.5 | 1.9 | 
(1r,2R,3S)-N-((6^3S,4S,Z)-1^1-ethyl-1^2-(5-(3-((R)-3-(hydroxymethyl)morpholino)prop-1-yn-1-yl)-2-((S)-1-methoxyethyl)pyridin-3-yl)-10,10-dimethyl-5,7-dioxo-6^1,6^2,6^3,6^4,6^5,6^6-hexahydro-1^1H-8-oxa-2(4,2)-thiazola-1(5,3)-indola-6(1,3)-pyridazinacycloundecaphane-4-yl)-2,3-dimethylcyclopropane-1-carboxamide [Example 38] | 0.18 | 0.07 | 
CCn1c(-c2cc(C#CCN3CCC4(CC3)CN(C)C4)cnc2[C@H](C)OC)c2c3cc(ccc31)-c1csc(n1)C[C@H](NC(=O)[C@H]1C[C@@H]1C)C(=O)N1CCC[C@H](N1)C(=O)OCC(C)(C)C2 [Example 50, (1S,2S)-N-((6^3S,4S,Z)-1^1-ethyl-1^2-(2-((S)-1-methoxyethyl)-5-(3-(2-methyl-2,7-diazaspiro[3.5]nonan-7-yl)prop-1-yn-1-yl)pyridin-3-yl)-10,10-dimethyl-5,7-dioxo-6^1,6^2,6^3,6^4,6^5,6^6-hexahydro-1^1H-8-oxa-2(4,2)-thiazola-1(5,3)-indola-6(1,3)-pyridazinacycloundecaphane-4-yl)-2-methylcyclopropane-1-carboxamide] | 15.2 | 1.2 | 
